According to patent US6465457B1 (priority 1991, dated 2002):
Read-outs that look alike come from different tables or passages of the source.

Assays:
Type in all cases: in vivo
[1] = tested on: Thanatephorus cucumeries (Rice); test: Foliar fungal disease test on plants: Thanatephorus cucumeries (Rice); settings: one or two days before inoculation
[2] = tested on: Phytophthora infestans (Tomatoes); settings: one or two days before inoculation
[3] = tested on: Puccinia recondita (Wheat); test: Foliar fungal disease test on plants: Puccinia recondita (Wheat); settings: plants inoculated with Puccinia recondita 48 hours before treatment
[4] = tested on: Erysiphe graminis tritici (Wheat); test: Foliar fungal disease test on plants: Erysiphe graminis tritici (Wheat); settings: plants inoculated 24 hours before treatment
[5] = tested on: Pyricularia oryzae (Rice); settings: one or two days before inoculation
[6] = tested on: Septoria nodorum (Wheat); test: Foliar fungal disease test on plants: Septoria nodorum (Wheat); settings: one or two days before inoculation
[7] = tested on: Venturia inaequalis (Apples); test: Foliar fungal disease test on plants: Venturia inaequalis (Apples); settings: one or two days before inoculation
[8] = tested on: Plasmopara viticola (Vines); test: Foliar fungal disease test on plants: Plasmopara viticola (Vines); settings: one or two days before inoculation
[9] = 100 ppm a.i. foliar spray or root drench (approx. 40 ppm in dry soil)
[10] = 100 ppm a.i. foliar spray or root drench

| Compound | POCO (Percentage of Control) disease level, Thanatephorus cucumeries (Rice) ([1]; 10 ppm foliar spray only) | POCO (Percentage of Control) disease level, Phytophthora infestans (Tomatoes) ([2]; 10 ppm foliar spray only) | POCO (Percentage of Control) disease level, Puccinia recondita (Wheat) ([3]; 10 ppm foliar spray only) | POCO (Percentage of Control) disease level, Erysiphe graminis tritici (Wheat) ([4]; 10 ppm foliar spray only) | POCO (Percentage of Control) disease level, Pyricularia oryzae (Rice) ([5]; 10 ppm foliar spray only) | POCO (Percentage of Control) disease level, Septoria nodorum (Wheat) ([6]; 10 ppm foliar spray only) | POCO (Percentage of Control) disease level, Venturia inaequalis (Apples) ([7]; 10 ppm foliar spray only) | POCO (Percentage of Control) disease level, Plasmopara viticola (Vines) ([8]; 10 ppm foliar spray only) | POCO (Percentage of Control) disease level, Thanatephorus cucumeries (Rice) [1, 9] | POCO (Percentage of Control) disease level, Phytophthora infestans (Tomatoes) [2, 9] | POCO (Percentage of Control) disease level, Puccinia recondita (Wheat) [3, 10] | POCO (Percentage of Control) disease level, Erysiphe graminis tritici (Wheat) [4, 9] | POCO (Percentage of Control) disease level, Pyricularia oryzae (Rice) [5, 9] | POCO (Percentage of Control) disease level, Septoria nodorum (Wheat) [6, 9] | POCO (Percentage of Control) disease level, Venturia inaequalis (Apples) [7, 9] | POCO (Percentage of Control) disease level, Plasmopara viticola (Vines) [8, 9] |
| --- | --- | --- | --- | --- | --- | --- | --- | --- | --- | --- | --- | --- | --- | --- | --- | --- |
| COC=C(C(=O)OC)c1ccccc1OC(=O)N(C)c1ccc(F)cc1F [24 (18)] | 90 (90 and 94 = 60.1-100% disease present) | 90 (90 and 94 = 60.1-100% disease present) | 90+ (90 and 94 = 60.1-100% disease present) | 60 (60 = 30.1-60% disease present) | 90 (90 and 94 = 60.1-100% disease present) | 90 (90 and 94 = 60.1-100% disease present) | 90 (90 and 94 = 60.1-100% disease present) | 90 (90 and 94 = 60.1-100% disease present) | – | – | – | – | – | – | – | – |
| COC=C(C(=O)OC)c1ccccc1COC(=O)Nc1cc(F)ccc1F [27 (1)] | 90 (90 and 94 = 60.1-100% disease present) | 90 (90 and 94 = 60.1-100% disease present) | 90+ (90 and 94 = 60.1-100% disease present) | 90 (90 and 94 = 60.1-100% disease present) | 30 (30 = 20.1-30% disease present) | 90 (90 and 94 = 60.1-100% disease present) | 90 (90 and 94 = 60.1-100% disease present) | 90 (90 and 94 = 60.1-100% disease present) | – | – | – | – | – | – | – | – |
| CCN(C(=O)OCc1ccccc1C(=COC)C(=O)OC)c1cc(F)ccc1F [27 (3)] | – | – | – | – | – | – | – | – | 0 (0 = 0% disease present) | 20 (20 and 24 = 10.1-20% disease present) | 0+ (0 = 0% disease present) | 0 (0 = 0% disease present) | 0 (0 = 0% disease present) | 30 (30 = 20.1-30% disease present) | 0 (0 = 0% disease present) | 0 (0 = 0% disease present) |
| COC=C(C(=O)OC)c1ccccc1COC(=O)Nc1ccc(F)c(F)c1 [28 (1)] | 90 (90 and 94 = 60.1-100% disease present) | 90 (90 and 94 = 60.1-100% disease present) | 5+ (5 = 3.1-5% disease present) | 90 (90 and 94 = 60.1-100% disease present) | 0 (0 = 0% disease present) | 30 (30 = 20.1-30% disease present) | 60 (60 = 30.1-60% disease present) | 30 (30 = 20.1-30% disease present) | – | – | – | – | – | – | – | – |
| COC=C(C(=O)OC)c1ccccc1COC(=O)N(C)c1ccc(F)c(F)c1 [28 (2)] | – | – | – | – | – | – | – | – | 0 (0 = 0% disease present) | 10 (10 = 5.1-10% disease present) | 0+ (0 = 0% disease present) | 0 (0 = 0% disease present) | 0 (0 = 0% disease present) | 0 (0 = 0% disease present) | 0 (0 = 0% disease present) | 0 (0 = 0% disease present) |
| CCN(C(=O)OCc1ccccc1C(=COC)C(=O)OC)c1ccc(F)c(F)c1 [28 (3)] | – | – | – | – | – | – | – | – | 0 (0 = 0% disease present) | 20 (20 and 24 = 10.1-20% disease present) | 0+ (0 = 0% disease present) | 0 (0 = 0% disease present) | 1 (1 = 0.1-1% disease present) | 0 (0 = 0% disease present) | 0 (0 = 0% disease present) | 0 (0 = 0% disease present) |
| COC=C(C(=O)OC)c1ccccc1COC(=O)N(C)c1ccccc1C(=O)OC [33 (2)] | – | – | – | – | – | – | – | – | 60 (60 = 30.1-60% disease present) | 90 (90 and 94 = 60.1-100% disease present) | 90+ (90 and 94 = 60.1-100% disease present) | 0 (0 = 0% disease present) | 30 (30 = 20.1-30% disease present) | 90 (90 and 94 = 60.1-100% disease present) | 60 (60 = 30.1-60% disease present) | 10 (10 = 5.1-10% disease present) |
| COC=C(C(=O)OC)c1ccccc1COC(=O)Nc1ccc(F)c(Cl)c1 [104 (1)] | – | – | – | – | – | – | – | – | 90 (90 and 94 = 60.1-100% disease present) | 90 (90 and 94 = 60.1-100% disease present) | 90+ (90 and 94 = 60.1-100% disease present) | 90 (90 and 94 = 60.1-100% disease present) | 90 (90 and 94 = 60.1-100% disease present) | 90 (90 and 94 = 60.1-100% disease present) | 90 (90 and 94 = 60.1-100% disease present) | 60 (60 = 30.1-60% disease present) |
| COC=C(C(=O)OC)c1ccccc1COC(=O)N(C)c1ccc(F)c(Cl)c1 [104 (2)] | – | – | – | – | – | – | – | – | 0 (0 = 0% disease present) | 10 (10 = 5.1-10% disease present) | 0+ (0 = 0% disease present) | 0 (0 = 0% disease present) | 0 (0 = 0% disease present) | 0 (0 = 0% disease present) | 0 (0 = 0% disease present) | 0 (0 = 0% disease present) |
| COC=C(C(=O)OC)c1ccccc1COC(=O)Nc1ccc(F)c([N+](=O)[O-])c1 [105 (1)] | – | – | – | – | – | – | – | – | 60 (60 = 30.1-60% disease present) | 90 (90 and 94 = 60.1-100% disease present) | 90+ (90 and 94 = 60.1-100% disease present) | 30 (30 = 20.1-30% disease present) | 60 (60 = 30.1-60% disease present) | 90 (90 and 94 = 60.1-100% disease present) | 20 (20 and 24 = 10.1-20% disease present) | 90 (90 and 94 = 60.1-100% disease present) |
| COC=C(C(=O)OC)c1ccccc1COC(=O)N(C)c1ccc(F)c([N+](=O)[O-])c1 [105 (2)] | – | – | – | – | – | – | – | – | 0 (0 = 0% disease present) | 0 (0 = 0% disease present) | 90+ (90 and 94 = 60.1-100% disease present) | 0 (0 = 0% disease present) | 5 (5 = 3.1-5% disease present) | 90 (90 and 94 = 60.1-100% disease present) | 10 (10 = 5.1-10% disease present) | 0 (0 = 0% disease present) |
| CCN(C(=O)OCc1ccccc1C(=COC)C(=O)OC)c1ccc(F)c([N+](=O)[O-])c1 [105 (3)] | – | – | – | – | – | – | – | – | 20 (20 and 24 = 10.1-20% disease present) | 0 (0 = 0% disease present) | 90+ (90 and 94 = 60.1-100% disease present) | 90 (90 and 94 = 60.1-100% disease present) | 60 (60 = 30.1-60% disease present) | 90 (90 and 94 = 60.1-100% disease present) | 0 (0 = 0% disease present) | 0 (0 = 0% disease present) |
